Each compound was assayed against T1, Human CaV2.2 channels (Homo sapiens, UniProt Q00975) (assay: Fluorescence assay for CaV2.2 channels using potassium depolarization to induce channel opening (FLIPR, Fluo 4)). Details: 3 μM test compound; 30 mM KCl (alternative assay buffer, inactivated channel state); HEK293 cells.
T1 construct: expressed in transfected cells
Format: cell-based
From the text: In the process, the Ca^2+ influx is quantified in the FLIPR assay with the aid of a Ca^2+-sensitive dye (type Fluo-4, Molecular Probes Europe BV, Leiden, the Netherlands) in a fluorescent imaging plate reader (FLIPR 3, Molecular Devices, Sunnyvale, USA), as described hereinafter.
2.1 Fluorescence Assay for CaV2.2 Channels Using Potassium Depolarization to Induce Channel Opening
Human CaV2.2 channels were stably expressed in HEK293 cells together with alpha2-delta and beta subunits of voltage gated calcium channels. In addition, an inwardly rectifying potassium channel (Kir2.3) was stably expressed in these cells to augment control of the cell membrane potential by the concentration of extracellular potassium ions. Raise of the extracellular potassium concentration leads to depolarization of the membrane potential and thus regulates the voltage dependent state of CaV2.2 channels. For preparation, cells were seeded in black poly-D-lysine coated 96-well plates (Becton Dickinson, Biocoat 4640) in 100 μL medium [500 mL DMEM/F-12 plus Glutamax (Invitrogen 31331-093) plus 5.5 mL MEM NEAA 100× (Invitrogen 11140-035) plus 50 mL FBS decomplemented (Invitrogen 10270-106) plus 200 μg/mL Geneticin (Invitrogen 10131-027) plus 50 μg/mL Hygromycin B (Invitrogen 10687-010) plus 2 μg/mL Blasticidin (anti-b15b Invivo-Gen) plus 0.2 μg/mL Puromycin (A 11138-03)] at a cell density of 30.000 cells per well. Plates were incubated at 37° C. (5% CO2) for 20 to 23 h. On the day of experiment medium was discarded and cells were loaded with Fluo 4 by addition of 100 μL of basic assay buffer (10 mM HEPES, 1 mM KCl, 149 mM NaCl, 0.8 mM CaCl2, 1.7 mM MgCl2, 10 mM Glucose, 0.1% BSA. pH 7.4) containing 2 μM Fluo 4 (Molecular Probes; F-14201), 0.01% pluronic acid (Molecular Probes; P-6866) and 2.5 mM probenecid (Molecular Probes; P36400). Cells were incubated in the dark at 25° C. for 60 min. Then dye containing buffer was discarded and […] basic (1 mM KCl) or alternative (30 mM KCl) assay buffer was added. The alternative assay buffer contained altered concentrations of KCl (30 mM) and NaCl (120 mM) and was used in order to promote the inactivated channel state. After that 25 μL of basic or alternative assay buffer with or without test compound were added and cells were incubated again in the dark at 25° C. for 15 min. Fluorescence intensity was measured on a FLIPR 3 instrument (Molecular Devices Corp., Sunnyvale, Calif.) with excitation at 480 nm and emission at 535 nm. After continuously reading fluorescence for 30 sec, 50 μL of basic assay buffer containing 210 mM KCl (NaCl omitted) were added for depolarization. Peak fluorescent signal intensity was determined and the amplitude of the peak signal, normalized to base line, was used to measure channel inhibition by test compounds.

T1 sequence (Q00975 whole entry): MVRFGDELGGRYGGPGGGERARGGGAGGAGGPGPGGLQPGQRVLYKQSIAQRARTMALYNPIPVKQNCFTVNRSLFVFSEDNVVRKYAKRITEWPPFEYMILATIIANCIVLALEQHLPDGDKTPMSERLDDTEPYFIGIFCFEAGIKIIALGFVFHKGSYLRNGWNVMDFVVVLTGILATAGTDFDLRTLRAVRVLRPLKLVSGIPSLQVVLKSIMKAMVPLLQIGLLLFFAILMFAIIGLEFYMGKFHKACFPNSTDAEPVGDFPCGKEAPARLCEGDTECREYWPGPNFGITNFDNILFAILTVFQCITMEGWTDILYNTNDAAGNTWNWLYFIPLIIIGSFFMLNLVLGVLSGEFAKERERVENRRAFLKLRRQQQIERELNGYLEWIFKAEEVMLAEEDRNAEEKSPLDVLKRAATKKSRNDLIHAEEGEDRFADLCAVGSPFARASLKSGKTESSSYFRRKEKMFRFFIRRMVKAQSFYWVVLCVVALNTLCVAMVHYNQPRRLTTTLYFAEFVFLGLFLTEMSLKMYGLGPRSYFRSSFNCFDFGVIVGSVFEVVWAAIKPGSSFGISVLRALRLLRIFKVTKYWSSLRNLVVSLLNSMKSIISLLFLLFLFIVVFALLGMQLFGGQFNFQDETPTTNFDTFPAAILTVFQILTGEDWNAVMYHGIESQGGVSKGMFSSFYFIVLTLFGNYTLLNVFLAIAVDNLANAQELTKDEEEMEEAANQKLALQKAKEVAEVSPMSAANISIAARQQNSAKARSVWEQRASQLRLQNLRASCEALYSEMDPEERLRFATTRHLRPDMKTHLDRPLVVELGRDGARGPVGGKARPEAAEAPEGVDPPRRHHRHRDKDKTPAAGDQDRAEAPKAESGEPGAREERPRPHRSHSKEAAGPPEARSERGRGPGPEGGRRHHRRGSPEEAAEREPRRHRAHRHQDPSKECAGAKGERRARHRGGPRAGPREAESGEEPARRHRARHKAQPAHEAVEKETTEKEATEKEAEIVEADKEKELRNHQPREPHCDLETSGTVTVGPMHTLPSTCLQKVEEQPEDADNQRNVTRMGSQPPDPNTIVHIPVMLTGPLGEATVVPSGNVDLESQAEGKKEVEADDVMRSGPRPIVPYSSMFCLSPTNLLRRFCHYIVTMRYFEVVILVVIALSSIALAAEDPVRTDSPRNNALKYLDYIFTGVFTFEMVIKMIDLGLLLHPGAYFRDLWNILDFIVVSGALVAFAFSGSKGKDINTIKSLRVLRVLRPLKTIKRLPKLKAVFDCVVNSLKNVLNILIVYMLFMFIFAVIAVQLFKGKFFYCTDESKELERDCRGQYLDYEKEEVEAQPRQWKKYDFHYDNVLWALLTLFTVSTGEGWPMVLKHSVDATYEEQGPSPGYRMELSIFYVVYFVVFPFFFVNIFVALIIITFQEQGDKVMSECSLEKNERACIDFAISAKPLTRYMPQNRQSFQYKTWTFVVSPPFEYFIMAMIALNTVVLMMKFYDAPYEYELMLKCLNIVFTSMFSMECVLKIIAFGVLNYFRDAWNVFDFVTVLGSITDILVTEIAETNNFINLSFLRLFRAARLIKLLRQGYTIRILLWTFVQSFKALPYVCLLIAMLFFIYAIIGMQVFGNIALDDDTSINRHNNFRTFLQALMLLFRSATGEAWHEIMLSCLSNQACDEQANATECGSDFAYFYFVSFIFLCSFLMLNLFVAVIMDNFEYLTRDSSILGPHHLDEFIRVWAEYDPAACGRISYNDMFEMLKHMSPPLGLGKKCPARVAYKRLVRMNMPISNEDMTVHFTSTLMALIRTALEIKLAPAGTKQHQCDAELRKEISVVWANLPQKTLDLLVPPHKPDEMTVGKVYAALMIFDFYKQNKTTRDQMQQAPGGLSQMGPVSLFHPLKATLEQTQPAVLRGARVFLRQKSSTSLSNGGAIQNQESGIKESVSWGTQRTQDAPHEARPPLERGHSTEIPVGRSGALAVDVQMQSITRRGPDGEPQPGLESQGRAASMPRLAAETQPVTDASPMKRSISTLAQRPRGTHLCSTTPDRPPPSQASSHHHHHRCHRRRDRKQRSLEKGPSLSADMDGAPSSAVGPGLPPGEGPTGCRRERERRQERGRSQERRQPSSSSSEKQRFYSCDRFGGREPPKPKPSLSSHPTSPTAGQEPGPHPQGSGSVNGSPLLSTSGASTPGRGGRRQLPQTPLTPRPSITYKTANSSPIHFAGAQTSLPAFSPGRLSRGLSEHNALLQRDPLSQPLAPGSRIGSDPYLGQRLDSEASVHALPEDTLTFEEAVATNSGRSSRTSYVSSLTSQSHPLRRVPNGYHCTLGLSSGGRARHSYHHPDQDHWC

Row | SMILES | Activity Category: %-Inhib (CaV2.2) @3 μM @30 mM KCl
1 | CC1(S(=O)(=O)c2cccc(C(F)(F)F)c2)CCOC(c2cc(S(=O)(=O)C(F)F)nn2CCO)C1 (stereo not drawn) [Example 25 cis-EN2, 2-[3-(Difluoro-methylsulfonyl)-5-[4-methyl-4-[[3-(trifluoromethyl)phenyl]sulfonyl]-tetrahydro-pyran-2-yl]-1H-pyrazol-1-yl]-ethanol] | A (“A”: %-Inhibition >95%)
2 | CC(C)(CO)n1nc(C(F)(F)F)cc1C1CC(C)(S(=O)(=O)c2cccc(C(F)(F)F)c2)CCO1 (stereo not drawn) [Example 6 cis-EN2, 2-Methyl-2-[5-[4-methyl-4-[[3-(trifluoromethyl)phenyl]sulfonyl]-tetrahydro-pyran-2-yl]-3-(trifluoromethyl)-1H-pyrazol-1-yl]-propan-1-ol] | A (“A”: %-Inhibition >95%)
3 | CC1(S(=O)(=O)c2cccc(C(F)(F)F)c2)CCOC(c2cc(C(F)(F)F)nn2CCS(C)(=O)=O)C1 (stereo not drawn) [Example 19 cis-EN1, 1-(2-Methylsulfonyl-ethyl)-5-[4-methyl-4-[[3-(trifluoromethyl)phenyl]sulfonyl]-tetrahydro-pyran-2-yl]-3-(trifluoromethyl)-1H-pyrazole] | B (“B”: %-Inhibition >75% up to ≤95%)
4 | CC1(S(=O)(=O)c2cccc(C(F)(F)F)c2)CCOC(c2cc(C(F)(F)F)nn2CCO)C1 (stereo not drawn) [Example 2 cis-EN2, 2-[5-[4-Methyl-4-[[3-(trifluoromethyl)phenyl]sulfonyl]-tetrahydro-pyran-2-yl]-3-(trifluoromethyl)-1H-pyrazol-1-yl]-ethanol] | A (“A”: %-Inhibition >95%)
5 | COCn1nc(C(F)F)cc1C1CC(C)(S(=O)(=O)c2cccc(C(F)(F)F)c2)CCO1 (stereo not drawn) [Example 5 cis-EN2, 3-(Difluoromethyl)-1-(methoxymethyl)-5-(4-methyl-4-((3-(trifluoromethyl)phenyl)sulfonyl)tetrahydro-2H-pyran-2-yl)-1H-pyrazole] | A (“A”: %-Inhibition >95%)

Same assay, conditions: HEK293, 3 μM test compound; 30 mM KCl (alternative assay buffer, inactivated channel state); HEK293 cells; read-out: Activity Category: %-Inhib (CaV2.2) @3 μM @30 mM KCl

Row | SMILES | inhibition at 3 µM [%]
6 | COCn1nc(C(F)F)cc1C1CC(C)(S(=O)(=O)c2cccc(C(F)(F)F)c2)CCO1 (stereo not drawn) [Example 5 cis-EN1, 3-(Difluoromethyl)-1-(methoxymethyl)-5-(4-methyl-4-((3-(trifluoromethyl)phenyl)sulfonyl)tetrahydro-2H-pyran-2-yl)-1H-pyrazole] | 75 to 95
7 | CC1(S(=O)(=O)c2cccc(C(F)(F)F)c2)CCOC(c2cc(C(F)(F)F)nn2CCO)C1 (stereo not drawn) [Example 2 cis-EN1, 2-[5-[4-Methyl-4-[[3-(trifluoromethyl)phenyl]sulfonyl]-tetrahydro-pyran-2-yl]-3-(trifluoromethyl)-1H-pyrazol-1-yl]-ethanol] | 75 to 95
8 | CC1(S(=O)(=O)c2cccc(C(F)(F)F)c2)CCOC(c2cc(C(F)(F)F)nn2CCCO)C1 (stereo not drawn) [Example 9 cis-EN1, 3-[5-[4-Methyl-4-[[3-(trifluoromethyl)phenyl]sulfonyl]-tetrahydro-pyran-2-yl]-3-(trifluoromethyl)-1H-pyrazol-1-yl]-propan-1-ol] | 75 to 95
9 | CC1(S(=O)(=O)c2cccc(C(F)(F)F)c2)CCOC(c2cc(C(F)(F)F)nn2C2CS(=O)(=O)C2)C1 (stereo not drawn) [Example 20 cis-EN1, 3-[5-[4-Methyl-4-[[3-(trifluoromethyl)phenyl]sulfonyl]-tetrahydro-pyran-2-yl]-3-(trifluoromethyl)-1H-pyrazol-1-yl]-thietane-1,1-dioxide] | 75 to 95
10 | CNC(=O)Cn1nc(C(F)(F)F)cc1C1CC(C)(S(=O)(=O)c2cccc(C(F)(F)F)c2)CCO1 (stereo not drawn) [Example 29 cis-EN1, N-Methyl-2-[5-[4-methyl-4-[[3-(trifluoromethyl)phenyl]sulfonyl]-tetrahydro-pyran-2-yl]-3-(trifluoromethyl)-1H-pyrazol-1-yl]-acetamide] | 75 to 95
11 | CC(C)(CO)n1nc(C(F)(F)F)cc1C1CC(C)(S(=O)(=O)c2cccc(C(F)(F)F)c2)CCO1 (stereo not drawn) [Example 6 cis-EN1, 2-Methyl-2-[5-[4-methyl-4-[[3-(trifluoromethyl)phenyl]sulfonyl]-tetrahydro-pyran-2-yl]-3-(trifluoromethyl)-1H-pyrazol-1-yl]-propan-1-ol] | 75 to 95
12 | CC1(S(=O)(=O)c2cccc(C(F)(F)F)c2)CCOC(c2cc(C(F)(F)F)nn2CC(N)=O)C1 (stereo not drawn) [Example 11 cis-EN1, 2-[5-[4-Methyl-4-[[3-(trifluoromethyl)phenyl]sulfonyl]-tetrahydro-pyran-2-yl]-3-(trifluoromethyl)-1H-pyrazol-1-yl]-acetamide] | 75 to 95
13 | CC(CO)Cn1nc(C(F)(F)F)cc1C1CC(C)(S(=O)(=O)c2cccc(C(F)(F)F)c2)CCO1 (racemic) [Example 24 cis-rac, 2-Methyl-3-[5-[4-methyl-4-[[3-(trifluoromethyl)phenyl]sulfonyl]-tetrahydro-pyran-2-yl]-3-(trifluoromethyl)-1H-pyrazol-1-yl]-propan-1-ol] | > 95
14 | CC1(S(=O)(=O)c2cccc(C(F)(F)F)c2)CCOC(c2cc(C(F)(F)F)nn2CCS(C)(=O)=O)C1 (stereo not drawn) [Example 19 cis-EN2, 1-(2-Methylsulfonyl-ethyl)-5-[4-methyl-4-[[3-(trifluoromethyl)phenyl]sulfonyl]-tetrahydro-pyran-2-yl]-3-(trifluoromethyl)-1H-pyrazole] | > 95
15 | CC1(S(=O)(=O)c2cccc(C(F)(F)F)c2)CCOC(c2cc(C(F)(F)F)nn2CS(C)(=O)=O)C1 (racemic) [Example 18 cis-rac, 1-(Methylsulfonyl-methyl)-5-[4-methyl-4-[[3-(trifluoromethyl)phenyl]sulfonyl]-tetrahydro-pyran-2-yl]-3-(trifluoromethyl)-1H-pyrazole] | > 95
16 | CN(C)C(=O)Cn1nc(C(F)(F)F)cc1C1CC(C)(S(=O)(=O)c2cccc(C(F)(F)F)c2)CCO1 (stereo not drawn) [Example 28 cis-EN1, N,N-Dimethyl-2-[5-[4-methyl-4-[[3-(trifluoromethyl)phenyl]sulfonyl]-tetrahydro-pyran-2-yl]-3-(trifluoromethyl)-1H-pyrazol-1-yl]-acetamide] | 75 to 95
17 | CC1(S(=O)(=O)c2cccc(C(F)(F)F)c2)CCOC(c2cc(S(=O)(=O)C(F)F)nn2CCO)C1 (stereo not drawn) [Example 25 cis-EN1, 2-[3-(Difluoro-methylsulfonyl)-5-[4-methyl-4-[[3-(trifluoromethyl)phenyl]sulfonyl]-tetrahydro-pyran-2-yl]-1H-pyrazol-1-yl]-ethanol] | 75 to 95
18 | COCCCn1nc(C(F)(F)F)cc1C1CC(C)(S(=O)(=O)c2cccc(C(F)(F)F)c2)CCO1 (racemic) [Example 10 cis-rac, 1-(3-Methoxypropyl)-5-(4-methyl-4-((3-(trifluoromethyl)phenyl)sulfonyl)tetrahydro-2H-pyran-2-yl)-3-(trifluoromethyl)-1H-pyrazole] | > 95
19 | CC(C)(C(N)=O)n1nc(C(F)(F)F)cc1C1CC(C)(S(=O)(=O)c2cccc(C(F)(F)F)c2)CCO1 (stereo not drawn) [Example 26 cis-EN1, 2-Methyl-2-[5-[4-methyl-4-[[3-(trifluoromethyl)phenyl]sulfonyl]-tetrahydro-pyran-2-yl]-3-(trifluoromethyl)-1H-pyrazol-1-yl]-propionamide] | > 95
20 | CC1(S(=O)(=O)c2cccc(C(F)(F)F)c2)CCOC(c2cc(S(C)(=O)=O)nn2CCO)C1 (stereo not drawn) [Example 4 cis-EN1, 2-[3-Methylsulfonyl-5-[4-methyl-4-[[3-(trifluoromethyl)phenyl]sulfonyl]-tetrahydro-pyran-2-yl]-1H-pyrazol-1-yl]-ethanol] | 40 to 75
21 | CC1(S(=O)(=O)c2cccc(C(F)(F)F)c2)CCOC(c2cc(C(F)(F)F)nn2CC2(N)CC2)C1 (racemic) [Example 15 cis-rac, [1-[[5-[4-Methyl-4-[[3-(trifluoromethyl)phenyl]sulfonyl]-tetrahydro-pyran-2-yl]-3-(trifluoromethyl)-1H-pyrazol-1-yl]-methyl]-cyclopropyl]-amine] | > 95
